Measured values taken from PubChem BioAssay (NCI).
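Interpolation was linear, between the two tested concentrations surrounding the appropriate level; five concentrations were tested over 48 hours in 96-well plates. The concentration for full growth arrest is given as TGI.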

tested on: A498 renal; test: NCI tumour cell line growth inhibition, 48 h

SMILES	TGI
CCCC(=O)OCC1OC(n2ccc(N)nc2=O)C(OC(=O)CCC)C1OC(=O)CCC (configuration not stated)	> 100 µM
O=S(=O)(O)CCCc1cccc2ccccc12	> 100 µM
CC(=O)OC1/C=C(\C)C(OC(C)=O)C/C=C(/C)CCC2C(/C=C/C1=O)C2(C)C (configuration not stated)	> 100 µM
COc1ccc(/C=C2\CCNC2=O)cc1	> 100 µM
CC(C)Cc1ccc(C(C)C(=O)N2CCN(/C=C/c3ccccc3)CC2)cc1 (configuration not stated)	31.8 µM
CO/N=C(\C)c1ccc(Nc2nc3ccccc3c3occc23)cc1	29.7 µM
O=P(O)(O)CCP(=O)(O)O	> 100 µM
Cc1n(Cc2ccccc2)c2c([n+]1C)C(=O)c1ccccc1C2=O	0.653 µM
CN(C)c1ccc(/C=c2/c3ccccc3n3c2c2c([n+]3C)CCCC2)cc1	0.92 µM
CC1(C)OC(C(=O)Nc2cc3c4ccccc4ccc3c3ccccc23)C(C(=O)N2CCCCC2)O1 (configuration not stated)	> 100 µM
CCN(CC)CCNc1ccc2nnn3c4ccc(OCCN(CC)CC)cc4c(=O)c1c23	> 100 µM
COc1cc2c(cc1OC)C(CC1=C(c3ccccc3)CN3CCc4cc(OC)c(OC)cc4C3C1)NCC2 (configuration not stated)	33.2 µM
Nc1c(C(=O)O)nnc2ccc(Cl)cc12	> 100 µM
O=C(O)C(O)C(O)C(O)C(O)c1nc2ccccc2s1 (configuration not stated)	63.7 µM

tested on: COLO 205 colon; test: NCI tumour cell line growth inhibition, 48 h

SMILES	TGI
CCCC(=O)OCC1OC(n2ccc(N)nc2=O)C(OC(=O)CCC)C1OC(=O)CCC (configuration not stated)	> 100 µM
O=S(=O)(O)CCCc1cccc2ccccc12	> 100 µM
CC(=O)OC1/C=C(\C)C(OC(C)=O)C/C=C(/C)CCC2C(/C=C/C1=O)C2(C)C (configuration not stated)	> 100 µM
NC(CCCCCP(=O)(c1ccccc1)C1C=CC=CC1)C(=O)O (configuration not stated)	> 100 µM
COc1ccc(/C=C2\CCNC2=O)cc1	> 100 µM
CC(C)Cc1ccc(C(C)C(=O)N2CCN(/C=C/c3ccccc3)CC2)cc1 (configuration not stated)	29.5 µM
CO/N=C(\C)c1ccc(Nc2nc3ccccc3c3occc23)cc1	28.1 µM
O=c1cc[nH]c(=O)[nH]1	384 µM
O=P(O)(O)CCP(=O)(O)O	> 100 µM
O=c1sc2ccccc2n1CC1CS1 (configuration not stated)	> 100 µM
Cc1n(Cc2ccccc2)c2c([n+]1C)C(=O)c1ccccc1C2=O	0.0794 µM
CN(C)c1ccc(/C=c2/c3ccccc3n3c2c2c([n+]3C)CCCC2)cc1	0.168 µM
CCOc1ncn(-c2ccc(NC(=S)Nc3ncccn3)cc2)n1	81.7 µM
CC1(C)OC(C(=O)Nc2cc3c4ccccc4ccc3c3ccccc23)C(C(=O)N2CCCCC2)O1 (configuration not stated)	> 100 µM
CCN(CC)CCNc1ccc2nnn3c4ccc(OCCN(CC)CC)cc4c(=O)c1c23	> 100 µM
COc1cc2c(cc1OC)C(CC1=C(c3ccccc3)CN3CCc4cc(OC)c(OC)cc4C3C1)NCC2 (configuration not stated)	31.4 µM
CC(=O)Nc1ccc(N=Nc2c(O)c(S(=O)(=O)O)cc3cc(S(=O)(=O)O)ccc23)cc1	> 100 µM
Nc1c(C(=O)O)nnc2ccc(Cl)cc12	> 100 µM
O=C(O)C(O)C(O)C(O)C(O)c1nc2ccccc2s1 (configuration not stated)	> 100 µM

tested on: DU-145 prostate; test: NCI tumour cell line growth inhibition, 48 h

SMILES	TGI
O=S(=O)(O)CCCc1cccc2ccccc12	> 100 µM
NC(CCCCCP(=O)(c1ccccc1)C1C=CC=CC1)C(=O)O (configuration not stated)	> 100 µM
CO/N=C(\C)c1ccc(Nc2nc3ccccc3c3occc23)cc1	29.7 µM
O=P(O)(O)CCP(=O)(O)O	> 100 µM
Cc1n(Cc2ccccc2)c2c([n+]1C)C(=O)c1ccccc1C2=O	0.32 µM
CN(C)c1ccc(/C=c2/c3ccccc3n3c2c2c([n+]3C)CCCC2)cc1	2.39 µM
CCOc1ncn(-c2ccc(NC(=S)Nc3ncccn3)cc2)n1	> 100 µM
CC1(C)OC(C(=O)Nc2cc3c4ccccc4ccc3c3ccccc23)C(C(=O)N2CCCCC2)O1 (configuration not stated)	> 100 µM
CCN(CC)CCNc1ccc2nnn3c4ccc(OCCN(CC)CC)cc4c(=O)c1c23	> 100 µM
CC(=O)Nc1ccc(N=Nc2c(O)c(S(=O)(=O)O)cc3cc(S(=O)(=O)O)ccc23)cc1	> 100 µM
Nc1c(C(=O)O)nnc2ccc(Cl)cc12	> 100 µM
O=C(O)C(O)C(O)C(O)C(O)c1nc2ccccc2s1 (configuration not stated)	31.2 µM

tested on: HCT-15 colon; test: NCI tumour cell line growth inhibition, 48 h

SMILES	TGI
CCCC(=O)OCC1OC(n2ccc(N)nc2=O)C(OC(=O)CCC)C1OC(=O)CCC (configuration not stated)	> 100 µM
O=S(=O)(O)CCCc1cccc2ccccc12	> 100 µM
CC(=O)OC1/C=C(\C)C(OC(C)=O)C/C=C(/C)CCC2C(/C=C/C1=O)C2(C)C (configuration not stated)	> 100 µM
NC(CCCCCP(=O)(c1ccccc1)C1C=CC=CC1)C(=O)O (configuration not stated)	> 100 µM
COc1ccc(/C=C2\CCNC2=O)cc1	> 100 µM
CC(C)Cc1ccc(C(C)C(=O)N2CCN(/C=C/c3ccccc3)CC2)cc1 (configuration not stated)	27.5 µM
CO/N=C(\C)c1ccc(Nc2nc3ccccc3c3occc23)cc1	30.5 µM
O=c1cc[nH]c(=O)[nH]1	> 1000 µM
O=P(O)(O)CCP(=O)(O)O	> 100 µM
O=c1sc2ccccc2n1CC1CS1 (configuration not stated)	> 100 µM
Cc1n(Cc2ccccc2)c2c([n+]1C)C(=O)c1ccccc1C2=O	16.2 µM
O=C1c2cccc3c2C(=O)c2c(cccc21)OCCOCCOCCOCCO3	> 100 µM
C=CCc1c(O)c2c(c3oc(=O)cc(C)c13)CC(C)O2 (configuration not stated)	> 100 µM
CN(C)c1ccc(/C=c2/c3ccccc3n3c2c2c([n+]3C)CCCC2)cc1	5.56 µM
CCOc1ncn(-c2ccc(NC(=S)Nc3ncccn3)cc2)n1	> 100 µM
CC1(C)OC(C(=O)Nc2cc3c4ccccc4ccc3c3ccccc23)C(C(=O)N2CCCCC2)O1 (configuration not stated)	> 100 µM
CCN(CC)CCNc1ccc2nnn3c4ccc(OCCN(CC)CC)cc4c(=O)c1c23	> 100 µM
COc1cc2c(cc1OC)C(CC1=C(c3ccccc3)CN3CCc4cc(OC)c(OC)cc4C3C1)NCC2 (configuration not stated)	36.1 µM
CC(=O)Nc1ccc(N=Nc2c(O)c(S(=O)(=O)O)cc3cc(S(=O)(=O)O)ccc23)cc1	> 100 µM
Nc1c(C(=O)O)nnc2ccc(Cl)cc12	> 100 µM
O=C(O)C(O)C(O)C(O)C(O)c1nc2ccccc2s1 (configuration not stated)	82.9 µM

tested on: HOP-92 NSCLC; test: NCI tumour cell line growth inhibition, 48 h

SMILES	TGI
CCCC(=O)OCC1OC(n2ccc(N)nc2=O)C(OC(=O)CCC)C1OC(=O)CCC (configuration not stated)	> 100 µM
O=S(=O)(O)CCCc1cccc2ccccc12	> 100 µM
CC(=O)OC1/C=C(\C)C(OC(C)=O)C/C=C(/C)CCC2C(/C=C/C1=O)C2(C)C (configuration not stated)	> 100 µM
NC(CCCCCP(=O)(c1ccccc1)C1C=CC=CC1)C(=O)O (configuration not stated)	> 100 µM
COc1ccc(/C=C2\CCNC2=O)cc1	> 100 µM
CC(C)Cc1ccc(C(C)C(=O)N2CCN(/C=C/c3ccccc3)CC2)cc1 (configuration not stated)	26.1 µM
CO/N=C(\C)c1ccc(Nc2nc3ccccc3c3occc23)cc1	27.6 µM
O=c1cc[nH]c(=O)[nH]1	> 1000 µM
O=P(O)(O)CCP(=O)(O)O	> 100 µM
O=c1sc2ccccc2n1CC1CS1 (configuration not stated)	> 100 µM
Cc1n(Cc2ccccc2)c2c([n+]1C)C(=O)c1ccccc1C2=O	1.49 µM
CN(C)c1ccc(/C=c2/c3ccccc3n3c2c2c([n+]3C)CCCC2)cc1	0.141 µM
CCOc1ncn(-c2ccc(NC(=S)Nc3ncccn3)cc2)n1	87 µM
CC1(C)OC(C(=O)Nc2cc3c4ccccc4ccc3c3ccccc23)C(C(=O)N2CCCCC2)O1 (configuration not stated)	> 100 µM
CCN(CC)CCNc1ccc2nnn3c4ccc(OCCN(CC)CC)cc4c(=O)c1c23	> 100 µM
CC(=O)Nc1ccc(N=Nc2c(O)c(S(=O)(=O)O)cc3cc(S(=O)(=O)O)ccc23)cc1	> 100 µM
O=C(O)C(O)C(O)C(O)C(O)c1nc2ccccc2s1 (configuration not stated)	40.1 µM

tested on: IGROV1 ovarian; test: NCI tumour cell line growth inhibition, 48 h

SMILES	TGI
CCCC(=O)OCC1OC(n2ccc(N)nc2=O)C(OC(=O)CCC)C1OC(=O)CCC (configuration not stated)	> 100 µM
O=S(=O)(O)CCCc1cccc2ccccc12	> 100 µM
CC(=O)OC1/C=C(\C)C(OC(C)=O)C/C=C(/C)CCC2C(/C=C/C1=O)C2(C)C (configuration not stated)	> 100 µM
NC(CCCCCP(=O)(c1ccccc1)C1C=CC=CC1)C(=O)O (configuration not stated)	> 100 µM
COc1ccc(/C=C2\CCNC2=O)cc1	> 100 µM
CC(C)Cc1ccc(C(C)C(=O)N2CCN(/C=C/c3ccccc3)CC2)cc1 (configuration not stated)	28.7 µM
CO/N=C(\C)c1ccc(Nc2nc3ccccc3c3occc23)cc1	31.7 µM
O=c1cc[nH]c(=O)[nH]1	> 1000 µM
O=P(O)(O)CCP(=O)(O)O	> 100 µM
